Results: patent US20050227220A1, “Compositions and Methods for Evaluating and Designing Nuclear Receptor Ligands that Modulate Co-Regulator Affinity” (priority 2002, published 2005)

Key:
PPARα LBD = target: T1, PPARα LBD (Homo sapiens, UniProt Q07869); test: FRET assay: ligand effect on CBP fragment / NCoR ID-C binding to PPAR LBD; type: biochemical; details: 10 nM PPAR LBD; for effect on apparent affinity of PPARα for the co-activator fragment from CBP: CBP (57-454)
T1 construct: made in house; host or cells: bacterial BL21-DE3, vector pRSETA
T1 sequence (Q07869 192-468): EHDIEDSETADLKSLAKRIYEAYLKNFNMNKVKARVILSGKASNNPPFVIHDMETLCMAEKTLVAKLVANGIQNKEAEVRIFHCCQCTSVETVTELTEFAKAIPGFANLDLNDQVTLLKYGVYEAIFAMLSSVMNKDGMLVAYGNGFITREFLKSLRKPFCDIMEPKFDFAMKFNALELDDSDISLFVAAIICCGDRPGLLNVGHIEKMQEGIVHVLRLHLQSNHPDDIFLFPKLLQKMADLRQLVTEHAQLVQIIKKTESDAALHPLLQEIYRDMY
From the text: (§1) The experimentally determined α value is the ratio of cofactor affinities in the presence and absence of a saturating concentration of ligand. This analysis permits a direct comparison of the effects of compounds, independent of cofactor concentration and differences in coregulator affinity for the individual receptors. […] 98(9): p.
(§2) The effects of the coregulator environment on the apparent affinities and selectivities of various ligands were than examined. Experimentally determined pKs and the α values derived from the FRET assay were used to calculate the apparent affinity of the ligand for the receptor/cofactor complex (i.e. K/α).
(§3) FIG. 5 illustrates the effect of ligands on coactivator and corepressor binding to PPAR subtypes determined by FRET.

PPARδ LBD / RXRα LBD = target: T2, PPARδ LBD / RXRα LBD (Homo sapiens, UniProt Q03181); test: FRET assay: ligand effect on RXRα LBD binding to PPAR LBD; details: 10 nM PPAR LBD, 4 concentrations of RXR
T2 sequence (Q03181 139-441): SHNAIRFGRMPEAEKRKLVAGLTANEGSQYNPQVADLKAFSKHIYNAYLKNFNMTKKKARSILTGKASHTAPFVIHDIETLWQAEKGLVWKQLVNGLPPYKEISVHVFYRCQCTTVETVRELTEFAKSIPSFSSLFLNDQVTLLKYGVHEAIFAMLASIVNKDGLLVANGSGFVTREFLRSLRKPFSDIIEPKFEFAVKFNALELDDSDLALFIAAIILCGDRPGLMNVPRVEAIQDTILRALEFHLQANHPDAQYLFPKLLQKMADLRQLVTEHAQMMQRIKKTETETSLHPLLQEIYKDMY
T2 sequence (P19793 225-462 partner limits assumed): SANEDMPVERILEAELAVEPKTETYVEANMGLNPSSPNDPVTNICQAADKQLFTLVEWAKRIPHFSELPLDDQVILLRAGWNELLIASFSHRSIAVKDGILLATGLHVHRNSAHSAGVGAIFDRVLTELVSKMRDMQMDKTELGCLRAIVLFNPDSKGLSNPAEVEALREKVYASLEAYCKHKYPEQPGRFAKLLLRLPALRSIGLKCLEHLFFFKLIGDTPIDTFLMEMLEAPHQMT

PPARδ LBD = target: T3, PPARδ LBD (Homo sapiens, UniProt Q03181); test: FRET assay: ligand effect on CBP fragment / NCoR ID-C binding to PPAR LBD; type: biochemical; details: 10 nM PPAR LBD, CBP (57-454)
T3 construct: made in house; host or cells: bacterial BL21-DE3, vector pRSETA
T3 sequence (Q03181 139-441): T2 sequence (Q03181 139-441)
From the text: as §1, §2, §3

full length human PPARα = target: T4, full length human PPARα (Homo sapiens, UniProt Q07869); test: Mammalian two-hybrid assay (CV-1 cells); type: cell-based; details: VP16-PPARα, GAL4-NCoR (2239-2300), result in words
T4 construct: expressed in transfected cells; host or cells: CV-1 cells, vector pVP16 (Clonetech)
T4 sequence (Q07869 1-468): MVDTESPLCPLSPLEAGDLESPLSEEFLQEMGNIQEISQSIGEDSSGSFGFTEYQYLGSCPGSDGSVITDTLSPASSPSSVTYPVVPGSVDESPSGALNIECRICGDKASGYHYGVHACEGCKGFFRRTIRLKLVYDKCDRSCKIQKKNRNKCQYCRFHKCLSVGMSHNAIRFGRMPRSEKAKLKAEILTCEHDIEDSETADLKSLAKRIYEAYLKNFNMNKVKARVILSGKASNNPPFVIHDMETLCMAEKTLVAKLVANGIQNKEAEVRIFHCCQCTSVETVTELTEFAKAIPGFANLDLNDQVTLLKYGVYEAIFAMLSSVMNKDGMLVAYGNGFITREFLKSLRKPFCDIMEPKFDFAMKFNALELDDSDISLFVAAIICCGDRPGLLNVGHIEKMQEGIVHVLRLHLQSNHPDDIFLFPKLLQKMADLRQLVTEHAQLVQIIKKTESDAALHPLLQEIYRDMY
From the text: Mammalian two-hybrid assays were used to examine the ability of the tyrosine-based class of PPAR ligands to promote association or dissociation of the co-activator CBP and the corepressor NCoR in the context of a cellular environment. The assays for the three PPAR subtypes used full length human PPARα, PPARγ2 or PPARδ fused to the activation domain of VP16 and previously identified interaction domains of CBP and NCoR fused to the DNA binding domain of GAL4.
Expression plasmids for the VP16-human PPAR constructs were prepared by inserting amplified cDNAs encoding full length PPARα, PPARγ2 and PPARδ fused to amino acids 410-490 of the VP16 viral activation domain, into the expression vector pVP16 (Clonetech). […] The reporter plasmid was (UAS)5-tk-SPAP, and the internal control plasmid for all transfections was β-galactosidase expression vector (pCH110, Amersham).
CV-1 cells were maintained in culture in DME high glucose medium supplemented with 10% FBS and 2 mM glutamine in a humidified incubator (5% CO2 in air) at 37° C. Cells were harvested 72 hours prior to experimental use and placed in phenol red free D-MEM/F-12 medium with 15 mM HEPES supplemented with 10% charcoal/dextran-treated FBS (HyClone, Logan, Utah). The cells were harvested and seeded at 2.0×10^4 cell per well in a 96-well plate the day prior to transfection. Cells were transfected for 16 hr using Lipofectamine (Life Technologies, Inc., Rockville, Md.) essentially according to the manufacturer's instructions. The total amount of DNA transfected into each well was 80 ng. Transfection mixtures contained 8 ng VP16-PPAR plasmid, 8 ng SPAP reporter, 25 ng of pCH110(β-galactosidase) control plasmid, 35 ng of pBluescript II KS+ (Clonetech) and 4 ng of either coactivator or corepressor plasmid. Transfection quantities for full length PPAR and cofactor plasmids were optimized to generate a signal that was half of the maximal activation. These conditions would allow for dissociation or association to be experimentally determined for each ligand evaluated. Stock solutions of drugs were prepated in DMSO and dilutions were made in phenol red-free D-MEM/F-12 with 15 mM HEPES supplemented with 10% charcoal stripped, delipidated, heat inactivated (62° C. for 35 min) bovine calf serum (Sigma, St. Louis, Mo.) such that the final concentration of DMSO was 0.1%. Transfection mixtures were aspirated and 100 μl, of medium containing drug was added to each well.

GAL4-CBP (1-115) = GAL4-CBP (1-115) (UniProt P04386 1-147; P45481 1-115); test: cell-based or functional assay

In the case of `C/C(=C/C(=O)c1ccccc1)N[C@@H](Cc1ccc(OCCc2nc(-c3ccccc3)oc2C)cc1)C(=O)O` [GW9544], the “effect on apparent affinity of PPARα for the co-activator fragment from CBP” value (“effect on apparent affinity of PPARα” for short) (PPARα LBD) is reported as “increased the apparent affinity”.

For `Cc1oc(-c2ccccc2)nc1CCOc1ccc(C[C@H](Nc2ccccc2C(=O)c2ccccc2)C(=O)O)cc1` [GW2570, farglitazar], the “promotion of association of PPARδ with RXR” value (PPARδ LBD / RXRα LBD) was “most effective”, the “effect on apparent affinity of PPARα” value (PPARα LBD) was “increased the apparent affinity” and the “effect on apparent affinity of PPARδ for the co-activator fragment from CBP” value (PPARδ LBD) was “increased the apparent affinity”.

`CCC(=O)NC[C@H](Cc1ccc(OCCc2nc(-c3ccccc3)oc2C)cc1)N/C(C)=C\C(=O)c1ccc(C(F)(F)F)cc1` [GW6471] was tested, and the “effect on PPARα interaction with NCoR” value (full length human PPARα) was “modulation of co-repressor interaction was seen”.

With `Cc1cc(SCc2sc(-c3ccc(C(F)(F)F)cc3)nc2C)ccc1OCC(=O)O` [GW1516] the “effect on apparent affinity of PPARα” value (PPARα LBD) was “increased the apparent affinity” and the “effect on affinity of PPARα for the co-repressor peptide” value (PPARα LBD; NCoR ID-C) was “decreased the affinity”.

B1: VP16-human PPARδ (full length) (other)
chain: LSTAPPTDVSLGDELHLDGEDVAMAHADALDDFDLDMLGDGDSPGPGFTPHDSAPYGALDMADFEFEQMFTDALGIDEYGGMEQPQEEAPEVREEEEKEEVAEAEGAPELNGGPQHALPSSSYTDLSRSSSPPSLLDQLQMGCDGASCGSLNMECRVCGDKASGFHYGVHACEGCKGFFRRTIRMKLEYEKCERSCKIQKKNRNKCQYCRFQKCLALGMSHNAIRFGRMPEAEKRKLVAGLTANEGSQYNPQVADLKAFSKHIYNAYLKNFNMTKKKARSILTGKASHTAPFVIHDIETLWQAEKGLVWKQLVNGLPPYKEISVHVFYRCQCTTVETVRELTEFAKSIPSFSSLFLNDQVTLLKYGVHEAIFAMLASIVNKDGLLVANGSGFVTREFLRSLRKPFSDIIEPKFEFAVKFNALELDDSDLALFIAAIILCGDRPGLMNVPRVEAIQDTILRALEFHLQANHPDAQYLFPKLLQKMADLRQLVTEHAQMMQRIKKTETETSLHPLLQEIYKDMY
With B1 the “mammalian two-hybrid reporter, fold association with GW1929 and GW7845” value (GAL4-CBP (1-115)) was ~2 fold.
